According to ChEMBL document CHEMBL1201862, “PubChem BioAssay data set” (2004):
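Method: 48-hour compound exposure of cells in 96-well plates, five concentrations, linear interpolation of endpoints. GI50: concentration for 50% inhibition of growth.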 The source made the active and inactive calls. Rule as the data show it: active = GI50 up to about 1.1 µM and inactive = higher.

Legend:
Experiment in all cases: growth of human tumour cells (NCI), 48 h
MCF7 = test system: MCF7
COLO 205 = test system: COLO 205
UO-31 = test system: UO-31
K562 = test system: K562
SK-OV-3 = test system: SK-OV-3
T47D = test system: T47D
HCT-116 = test system: HCT-116
NCI-H23 = test system: NCI-H23
NCI/ADR-RES = test system: NCI/ADR-RES
OVCAR-8 = test system: OVCAR-8
SK-MEL-5 = test system: SK-MEL-5
HCT-15 = test system: HCT-15
OVCAR-4 = test system: OVCAR-4
SNB-75 = test system: SNB-75
Hs-578T = test system: Hs-578T
DU-145 = test system: DU-145
HOP-62 = test system: HOP-62
HT-29 = test system: HT-29
UACC-62 = test system: UACC-62
NCI-H226 = test system: NCI-H226
PC-3 = test system: PC-3
HL-60 = test system: HL-60
OVCAR-3 = test system: OVCAR-3
NCI-H522 = test system: NCI-H522
ACHN = test system: ACHN
IGROV-1 = test system: IGROV-1
TK-10 = test system: TK-10
CAKI-1 = test system: CAKI-1
RXF 393 = test system: RXF 393
SK-MEL-28 = test system: SK-MEL-28
KM12 = test system: KM12
U-251 = test system: U-251
786-0 = test system: 786-0
SF-268 = test system: SF-268
SN12C = test system: SN12C
SR = test system: SR
RPMI-8226 = test system: RPMI-8226
EKVX = test system: EKVX
CCRF-CEM = test system: CCRF-CEM
UACC-257 = test system: UACC-257
SF-539 = test system: SF-539
SNB-19 = test system: SNB-19
HCC 2998 = test system: HCC 2998
MDA-MB-435 = test system: MDA-MB-435
M14 = test system: M14
A549 = test system: A549
SW-620 = test system: SW-620
MOLT-4 = test system: MOLT-4
MDA-N = test system: MDA-N
NCI-H460 = test system: NCI-H460
BT-549 = test system: BT-549
SF-295 = test system: SF-295
MDA-MB-231 = test system: MDA-MB-231
Malme-3M = test system: Malme-3M
OVCAR-5 = test system: OVCAR-5
SK-MEL-2 = test system: SK-MEL-2
HOP-92 = test system: HOP-92

O=C1/C(=C/c2ccccc2)Oc2cc(O)ccc21 was tested. Which GI50 (MCF7) did it give?
Its GI50 is > 100 µM (inactive).

And the GI50 (COLO 205)?
The GI50 was > 100 µM (inactive).

And the GI50 (UO-31)?
The GI50 was > 100 µM (inactive).

And the GI50 (K562)?
The GI50 was > 100 µM (inactive).

What about the GI50 (SK-OV-3) of the same compound?
The GI50 was > 100 µM (inactive).

And the GI50 (T47D)?
Its GI50 is > 100 µM (inactive).

What about the GI50 (HCT-116) of the same compound?
Its GI50 is > 100 µM (inactive).

What about the GI50 (NCI-H23) of the same compound?
The GI50 was > 100 µM (inactive).

And the GI50 (NCI/ADR-RES)?
The GI50 was > 100 µM (inactive).

What about the GI50 (OVCAR-8) of the same compound?
The GI50 was > 100 µM (inactive).

And the GI50 (SK-MEL-5)?
The GI50 was > 100 µM (inactive).

What about the GI50 (HCT-15) of the same compound?
The GI50 was greater than 100 µM.

And the GI50 (OVCAR-4)?
The GI50 was > 100 µM (inactive).

What about the GI50 (SNB-75) of the same compound?
Its GI50 is > 100 µM (inactive).

And the GI50 (Hs-578T)?
Its GI50 is > 100 µM (inactive).

And the GI50 (DU-145)?
Its GI50 is > 100 µM (inactive).

What about the GI50 (HOP-62) of the same compound?
Its GI50 is > 100 µM (inactive).

What about the GI50 (HT-29) of the same compound?
The GI50 was > 100 µM (inactive).

What about the GI50 (UACC-62) of the same compound?
Its GI50 is > 100 µM (inactive).

What about the GI50 (NCI-H226) of the same compound?
Its GI50 is > 100 µM (inactive).

And the GI50 (PC-3)?
The GI50 was > 100 µM (inactive).

What about the GI50 (HL-60) of the same compound?
Its GI50 is > 100 µM (inactive).

What about the GI50 (OVCAR-3) of the same compound?
The GI50 was > 100 µM (inactive).

And the GI50 (NCI-H522)?
Its GI50 is 70.3 µM (inactive).

And the GI50 (ACHN)?
Its GI50 is > 100 µM (inactive).

And the GI50 (IGROV-1)?
Its GI50 is > 100 µM (inactive).

What about the GI50 (TK-10) of the same compound?
The GI50 was > 100 µM (inactive).

What about the GI50 (CAKI-1) of the same compound?
Its GI50 is > 100 µM (inactive).

What about the GI50 (RXF 393) of the same compound?
Its GI50 is > 100 µM (inactive).

And the GI50 (SK-MEL-28)?
The GI50 was > 100 µM (inactive).

What about the GI50 (KM12) of the same compound?
The GI50 was > 100 µM (inactive).

What about the GI50 (U-251) of the same compound?
Its GI50 is > 100 µM (inactive).

What about the GI50 (786-0) of the same compound?
Its GI50 is > 100 µM (inactive).

And the GI50 (SF-268)?
The GI50 was > 100 µM (inactive).

And the GI50 (SN12C)?
Its GI50 is > 100 µM (inactive).

And the GI50 (SR)?
Its GI50 is > 100 µM (inactive).

And the GI50 (RPMI-8226)?
Its GI50 is > 100 µM (inactive).

What about the GI50 (EKVX) of the same compound?
Its GI50 is > 100 µM (inactive).

What about the GI50 (CCRF-CEM) of the same compound?
Its GI50 is > 100 µM (inactive).

What about the GI50 (UACC-257) of the same compound?
Its GI50 is > 100 µM (inactive).

What about the GI50 (SF-539) of the same compound?
Its GI50 is > 100 µM (inactive).

What about the GI50 (SNB-19) of the same compound?
The GI50 was > 100 µM (inactive).

What about the GI50 (HCC 2998) of the same compound?
The GI50 was > 100 µM (inactive).

And the GI50 (MDA-MB-435)?
The GI50 was > 100 µM (inactive).

What about the GI50 (M14) of the same compound?
Its GI50 is > 100 µM (inactive).

And the GI50 (A549)?
The GI50 was > 100 µM (inactive).

What about the GI50 (SW-620) of the same compound?
The GI50 was > 100 µM (inactive).

And the GI50 (MOLT-4)?
The GI50 was > 100 µM (inactive).

What about the GI50 (MDA-N) of the same compound?
The GI50 was > 100 µM (inactive).

And the GI50 (NCI-H460)?
The GI50 was > 100 µM (inactive).

And the GI50 (BT-549)?
The GI50 was > 100 µM (inactive).

And the GI50 (SF-295)?
The GI50 was > 100 µM (inactive).

And the GI50 (MDA-MB-231)?
Its GI50 is > 100 µM (inactive).

For O=c1oc2ccccc2cc1/C=N/N1C(=S)N(c2ccccc2)C(=N\c2ccccc2)/C1=N/c1ccccc1, which GI50 (MCF7) is on record?
Its GI50 is > 100 µM (inactive).

What about the GI50 (COLO 205) of the same compound?
Its GI50 is > 100 µM (inactive).

And the GI50 (UO-31)?
The GI50 was > 100 µM (inactive).

What about the GI50 (K562) of the same compound?
The GI50 was > 100 µM (inactive).

What about the GI50 (SK-OV-3) of the same compound?
The GI50 was > 100 µM (inactive).

And the GI50 (T47D)?
The GI50 was 3.49 µM (inactive).

What about the GI50 (Malme-3M) of the same compound?
The GI50 was > 100 µM (inactive).

What about the GI50 (HCT-116) of the same compound?
Its GI50 is 41.4 µM (inactive).

What about the GI50 (NCI-H23) of the same compound?
The GI50 was > 100 µM (inactive).

What about the GI50 (NCI/ADR-RES) of the same compound?
Its GI50 is > 100 µM (inactive).

What about the GI50 (OVCAR-8) of the same compound?
Its GI50 is 34.6 µM (inactive).

What about the GI50 (SK-MEL-5) of the same compound?
Its GI50 is 87.7 µM (inactive).

And the GI50 (HCT-15)?
The GI50 was greater than 100 µM.

What about the GI50 (SNB-75) of the same compound?
The GI50 was 1.65 µM (inactive).

And the GI50 (Hs-578T)?
Its GI50 is > 100 µM (inactive).

And the GI50 (DU-145)?
The GI50 was > 100 µM (inactive).

And the GI50 (HOP-62)?
Its GI50 is 52.2 µM (inactive).

What about the GI50 (HT-29) of the same compound?
The GI50 was > 10 µM (inactive).

And the GI50 (UACC-62)?
The GI50 was 98.2 µM (inactive).

What about the GI50 (NCI-H226) of the same compound?
Its GI50 is > 100 µM (inactive).

And the GI50 (PC-3)?
The GI50 was 14 µM (inactive).

What about the GI50 (OVCAR-3) of the same compound?
The GI50 was > 100 µM (inactive).

And the GI50 (NCI-H522)?
Its GI50 is 34 µM (inactive).

And the GI50 (ACHN)?
The GI50 was 39.6 µM (inactive).

And the GI50 (IGROV-1)?
The GI50 was > 100 µM (inactive).

And the GI50 (TK-10)?
The GI50 was > 100 µM (inactive).

What about the GI50 (CAKI-1) of the same compound?
Its GI50 is > 100 µM (inactive).

And the GI50 (OVCAR-5)?
The GI50 was > 100 µM (inactive).

And the GI50 (RXF 393)?
The GI50 was 26.4 µM (inactive).

What about the GI50 (SK-MEL-28) of the same compound?
The GI50 was > 100 µM (inactive).

What about the GI50 (KM12) of the same compound?
The GI50 was > 100 µM (inactive).

What about the GI50 (U-251) of the same compound?
Its GI50 is > 100 µM (inactive).

And the GI50 (786-0)?
The GI50 was > 100 µM (inactive).

And the GI50 (SF-268)?
Its GI50 is > 100 µM (inactive).

What about the GI50 (SN12C) of the same compound?
The GI50 was > 100 µM (inactive).

And the GI50 (SR)?
The GI50 was > 100 µM (inactive).

What about the GI50 (RPMI-8226) of the same compound?
Its GI50 is > 100 µM (inactive).

What about the GI50 (EKVX) of the same compound?
Its GI50 is > 100 µM (inactive).

And the GI50 (SK-MEL-2)?
The GI50 was > 100 µM (inactive).

And the GI50 (UACC-257)?
Its GI50 is 96.8 µM (inactive).

What about the GI50 (SF-539) of the same compound?
Its GI50 is > 100 µM (inactive).

What about the GI50 (HOP-92) of the same compound?
The GI50 was > 100 µM (inactive).

What about the GI50 (SNB-19) of the same compound?
Its GI50 is > 100 µM (inactive).

What about the GI50 (HCC 2998) of the same compound?
Its GI50 is > 100 µM (inactive).

What about the GI50 (MDA-MB-435) of the same compound?
Its GI50 is > 100 µM (inactive).

What about the GI50 (M14) of the same compound?
Its GI50 is > 100 µM (inactive).

What about the GI50 (A549) of the same compound?
Its GI50 is > 100 µM (inactive).

And the GI50 (SW-620)?
Its GI50 is 8.71 µM (inactive).

And the GI50 (MOLT-4)?
The GI50 was > 100 µM (inactive).

What about the GI50 (MDA-N) of the same compound?
Its GI50 is 20.5 µM (inactive).

And the GI50 (NCI-H460)?
Its GI50 is 47.6 µM (inactive).

What about the GI50 (BT-549) of the same compound?
Its GI50 is > 100 µM (inactive).

What about the GI50 (SF-295) of the same compound?
The GI50 was 28.1 µM (inactive).

What about the GI50 (MDA-MB-231) of the same compound?
The GI50 was > 100 µM (inactive).
